Where a name gives a salt, the structure may show the parent alone.

T1 sequence (P0A7G6 2-353): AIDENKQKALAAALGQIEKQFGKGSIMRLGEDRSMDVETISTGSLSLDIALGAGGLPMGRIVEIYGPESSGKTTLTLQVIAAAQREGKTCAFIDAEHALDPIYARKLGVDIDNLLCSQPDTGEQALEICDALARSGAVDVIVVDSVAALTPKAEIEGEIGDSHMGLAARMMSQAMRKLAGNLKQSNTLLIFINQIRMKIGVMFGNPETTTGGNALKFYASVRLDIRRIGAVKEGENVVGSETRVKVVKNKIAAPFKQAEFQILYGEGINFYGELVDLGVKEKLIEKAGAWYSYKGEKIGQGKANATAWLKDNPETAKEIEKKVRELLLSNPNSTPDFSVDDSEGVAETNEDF

In the first assay the test system is S. aureus strain S3. As to the kind of experiment: Cell growth assay, first assay (gentamycin potentiation). The assay is classed as cell-based. The following applies: gentamycin alone, sublethal concentration 0.3 μg/mL. How it is done: Cell Growth Assay. This assay measures the ability of cells to grow in the presence of a sublethal dose (i.e., a dose below the MIC) of an antibiotic agent (or test agent, or combination thereof). In general, cells are grown, typically to saturation, and are then diluted and inoculated onto rich medium and onto medium containing a sublethal dose of antibiotic agent. Plates are then grown overnight, and OD600 is measured after overnight growth, as compared with blank plate. If desired, a test agent can be added to the plate, either alone or in combination with the known antibiotic agent, and the ratio of OD600 in the presence of the test agent to OD600 in the absence of the test agent, can be determined. Additional ratios that can be useful as controls include, for example, OD600 in the presence vs. absence of antibiotic agent; OD600 in the absence of any agent vs. in the presence of both antibiotic agent and test agent; etc.
Actinomycin D Potentiates Gentamycin: In the first assay, S. aureus strain S3 was used in a cell growth assay as described in FIG. 4. The strain was grown in the presence and absence of gentamycin and actinomycin D. Various concentrations of gentamycin and actinomycin D were used. Specifically, 40 μL gentamycin stock (5 mg/mL) was first diluted in 360 μL H2O. Then, 200 μL of the diluted gentamycin solution was further mixed with 200 μL H2O. […]
For the compound gentamycin, the “growth of S. aureus strain S3” value is recorded as “grew equally well”.

A further assay concerns the target T1, E. coli RecA protein (Escherichia coli, UniProt P0A7G6).
T1 construct: purchased Epicentre, Madison, Wis
Description: High throughput RecA-luciferase assay (ATP remaining after RecA ATPase reaction). The format is biochemical. The following applies: compounds identified from the screen of more than 22,000 compounds. How it is done: RecA is a DNA-dependent ATPase (i.e., it catalyzes the reaction adenosine triphosphate [ATP]→adenosine diphosphate [ADP]). An assay was developed for RecA ATPase activity based on detection of the amount of ATP remaining in a reaction mixture following incubation of RecA protein, DNA, and ATP. In an exemplary assay, E. coli RecA protein is incubated in reaction buffer with DNA, ATP, and any test compound or compounds for a measured amount of time. The quantity of ATP remaining after the RecA reaction can be quantitated using a subsequent luciferase assay. The luciferase emits more light as more ATP is available. In some embodiments, the amount of ATP remaining can be compared to controls containing either a known inhibitor (full inhibition control) or no test compound (full activity control). In some embodiments, a positive control (having no DNA added to the well) and negative control (having DNA and no compounds) are run with each screen. Positive responses are based upon the percent reduction of activity of luciferase, with a high percentage representing increased RecA inhibition. Percent inhibition can be calculated according to the following equation: […]
An in vitro RecA-luciferase assay was used to screen for RecA inhibitors. RecA is a DNA-dependent ATPase (i.e., it catalyzes the reaction adenosine triphosphate [ATP]→adenosine diphosphate [ADP]). An assay was developed for RecA ATPase activity based on detection of the amount of ATP remaining in a reaction mixture following incubation of RecA protein, DNA, and ATP. […] The quantity of ATP remaining after the RecA reaction was measured by a subsequent luciferase assay. The luciferase emit more light as more ATP was available.
For high throughput screening, the following reagents were added to each well of a 384 well plate:
The reagents were mixed and incubate at room temperature for about 5 minutes. Then, 5.0 μL of ATP mix, as indicated below, were added to each well.
The mix was incubated at room temperature for about 90-120 minutes. 12.5 μL of Kinase-Glo® plus (Promega) were added to each well and incubated at room temperature for about 10 minutes or more. The luminescence of the reaction was measured.
A positive control (having no DNA added to the well) and negative control (having DNA and no compounds) were run with each screen. Positive responses were based upon the percent reduction of activity of luciferase, with a high percentage representing increased RecA inhibition. Percent inhibition can be calculated according to the following equation: […]
Turning to `COc1cc2cc3c4cc(OC)c(OC)cc4cc[n+]3c(C)c2cc1OC.O.[Cl-]` [coralyne chloride hydrate], the “activity in the RecA-luciferase screen (in words)” value (“activity” below) is on record as “particularly active”.
Same read-out and setting: then `COc1cccc2c1C(=O)c1c(O)c3c(c(O)c1C2=O)C[C@@](O)(C(C)=O)C[C@@H]3O[C@H]1C[C@H](N)[C@H](O)[C@H](C)O1` [daunorubicin hydrochloride], with “particularly active”; and `COc1cc2cc3c4cc(OC)c(OC)cc4cc[n+]3c(C)c2cc1OC.[Cl-]` [coralyne chloride], with “particularly active”; and `Oc1c(Cl)cc(Cl)c(Cl)c1Cc1c(O)c(Cl)cc(Cl)c1Cl` [hexachlorophene], with “particularly active”.
Consider `CC[N+](C)(CC)CCC[n+]1c(-c2ccccc2)c2cc(N)ccc2c2ccc(N)cc21.[I-].[I-]` [propidium iodide], for which the “activity” value is “particularly active”.
Still for that read-out and setting: under doxorubicin hydrochloride stands “particularly active”; under `Oc1c(Cl)cc(Cl)cc1Sc1cc(Cl)cc(Cl)c1O` [bithionol], “particularly active”.
Still for that read-out and setting: under `CC[n+]1c(-c2ccccc2)c2cc(N)ccc2c2ccc(N)cc21` [homidium bromide] stands “particularly active”; under `Nc1c2ccccc2nc2ccccc12` [acrisorcin], “particularly active”.
Still for that read-out and setting: under `Cc1cc(N)c2ccccc2[n+]1CCCCCCCCCC[n+]1c(C)cc(N)c2ccccc21` [dequalinium chloride] stands “particularly active”; under `CCN(CC)CCCC(C)Nc1c2ccc(Cl)cc2nc2ccc(OC)cc12` (stereo not drawn) [quinacrine hydrochloride], “particularly active”.
As for `Cl.Cl.O=C1c2c(O)ccc(O)c2C(=O)c2c(NCCNCCO)ccc(NCCNCCO)c21` [mitoxathrone hydrochloride], the “activity” value was “particularly active”.
Same read-out and setting: under `C[n+]1c2cc(N)ccc2cc2ccc(N)cc21.[Cl-]` [acriflavinium hydrochloride] stands “particularly active”.
Same read-out and setting: under `Cc1c2ccncc2c(C)c2c1[nH]c1ccccc12` [ellipticine] stands “particularly active”.

Values taken from patent publication US20110015137A1, “RECA INHIBITORS AND THEIR USES AS MICROBIAL INHIBITORS OR POTENTIATORS OF ANTIBIOTIC ACTIVITY” (Trustees of Boston University, priority 2007, published 2011).
